Source: patent US6936735B2, “Photostable cationic organic sunscreen compounds and compositions obtained therefrom” (EMD Chemicals, Inc., priority 2002, dated 2005)

Assays:
Type in all cases: physicochemical
[1] = Comparative photostability of thin film under UV-B irradiation (Q-UV Accelerated Weathering Tester); conditions: UV-B (1 MED/h), thin film with 0.1% PVP-VA on glass plate, Example 3 1%, Incroquat 283 1%, HP610 0.1%
Procedure: (§1) The photostability of compounds of the present invention as well as existing commercial cationic sunscreens is tested according to the procedure described below: • Photostability: Comparative Photostability of Example 3, Incroquat® 283 and Escalol® HP610
(§2) Three products [Example 3 (1%), Incroquat 283 (1%) and HP610 (0.1%)] were tested for their photostability by dissolving separately in water or ethanol-water solution containing 0.1% Poly(vinylpyrrolidone-vinyl acetate) copolymer (PVP-VA S630 from ISP). Air drying on a glass plate for one hour gave a thin film, which were irradiated under UV A (2 MED/h) and UV B (1 MED/h) light separately over an 8 h period in a Q-UV Accelerated Weathering Tester. Photodegradation was calculated from the decrease in the maximum absorption of the respective products. The results are illustrated in the Tables 1 and 2.

[2] = Comparative photostability of thin film under UV-A irradiation (Q-UV Accelerated Weathering Tester); conditions: UV-A (2 MED/h), thin film with 0.1% PVP-VA on glass plate, Example 3 1%, Incroquat 283 1%, HP610 0.1%
Procedure: as §1, §2

Solubility = conditions: for solubility in water: water / aqueous solution
UV absorption maximum = conditions: EtOH:water—70%:30%
Procedure: The mass was degassed for one hour at 90-95 deg. C. under vacuum. The yield obtained is about 85%. […] A 50% solution in water was prepared for ease of handling.

| % Product Retained After 1 hr [1] | % Product Retained After 2 hr [1] | % Product Retained After Initial [1] | % Product Retained After 2 hr [2] | % Product Retained After 4 hr [2] | % Product Retained After 6 hr [2] | % Product Retained After Initial [2] | maximal concentration reached in solution (Solubility; aqueous-ethanolic solution (30:70%)) | solubility in water (Solubility) | λmax (UV absorption maximum) | Molecule |
| --- | --- | --- | --- | --- | --- | --- | --- | --- | --- | --- |
| 33% | 28% | 100% | 50% | 40% | 30% | 100% | 0.25% | very poor solubility | – | CCCCCCCCCCCC[N+](C)(C)CCCNC(=O)c1ccc(N(C)C)cc1.Cc1ccc(S(=O)(=O)[O-])cc1 [Escalol HP ®-610] |
| 96% | 93% | 100% | 98% | 97% | 94% | 100% | – | soluble in water | 301 nm | Bis-N-[3(N,N-dimethylamino)propyl]-3,4,5-trimethoxy benzylidene malonamide bis ethylsulfate [Example 3] |
